Measured values as given in patent US7741344B2, “Process for preparing purified S-BEL and R-BEL and compositions thereof” (Washington University in St. Louis, priority 2002, dated 2010).

Key:
[1] = tested on: MAPK (ERK2) phosphorylation; experiment: AVP-induced MAPK phosphorylation in A-10 cells (Western); type: cell-based, rat; conditions: 5 μM, 15 min, 1 μM AVP; FIG. 9
A-10 smooth muscle cells = experiment: AVP-induced [3H]-arachidonic acid liberation from A-10 cells; type: cell-based, rat; conditions: 1 μM AVP, FIG. 5
Protocol: Quantification of [^3H]-Arachidonic Acid Liberation from A-10 Phospholipids—Rat aortic smooth muscle A-10 cells, cultured in 60 mm dishes (2.5×10^5 cells/dish), were radiolabeled with 0.5 μCi [^3H]-arachidonic acid per dish as previously described (29). Cells were washed once with DMEM containing 0.25% fatty acid free bovine serum albumin followed by two washes with DMEM alone. Cells were then incubated with the indicated concentrations of (R)-, (S)-, rac-BEL, or ethanol vehicle (0.1% final concentration) in DMEM for 20 min. This media was removed and the cells were then incubated with DMEM containing 10% heat-inactivated fetal bovine serum in the absence or presence of 1 μM AVP. In some tests, PMA (1 μM) or DOG (10 μM) was added to the medium containing AVP. After 5 mm, 1 ml of this medium was removed, lipids were extracted into 2 ml of chloroform/methanol/acetic acid (25:24:1 v/v) (38), and the remaining cells were scraped into 1 ml of deionized water prior to lipid extraction as described above. The chloroform layer was evaporated under nitrogen and the extracted lipids were separated by thin layer chromatography (petroleum ether/ethyl ether/glacial acetic acid 70:30:1). Regions containing fatty acids and phospholipids were scraped into vials and radioactivity was quantified by liquid scintillation spectrometry.
A-10 cells (2.5×10^5 cells/dish) were radiolabeled with [^3H]-arachidonic acid (0.5 μCi/dish) for 20 hrs. After washing to remove unincorporated [^3H]-arachidonic acid, cells were then incubated with either 1 μM or 5 μM (R)-BEL, (S)-BEL, rac-BEL, or ethanol vehicle (0.1%) in DMEM for 20 mm. This media was removed and the cells were then incubated with 3 ml of DMEM containing 10% heat-inactivated fetal bovine serum with or without 1 μM AVP. After 5 min, 1 ml of this medium was removed and lipids were extracted into 2 ml of chloroform/methanol/acetic acid (25:24:1). The remaining cells were scraped into 1 ml of deionized water and total lipids were extracted as described above. The chloroform layer was evaporated under nitrogen and the extracted lipids were separated by TLC. Regions containing fatty acids and phospholipids were scraped into vials and radioactivity was quantified by liquid scintillation spectrometry. Results are representative of four separate tests.
A-10 cells were radiolabeled with [^3H]-arachidonic acid, washed, and pre-incubated with 5 μM (S)-BEL or ethanol vehicle alone for 15 min as described in FIG. 5. DMEM media containing 10% heat-inactivated fetal bovine serum with or without 1 μM AVP was then added to the cells. After 5 min at 37° C., [^3H]-arachidonic acid released into the media and remaining within the cells (free and incorporated into phospholipids) was extracted into chloroform, separated by TLC, and quantified by liquid scintillation spectrometry as described in “Experimental Procedures”. Results are representative of three separate tests.

Row | Compound | AVP-induced phosphorylation of ERK2 [1] | AVP-induced increase in non-esterified [3H]-arachidonic acid (in words) (A-10 smooth muscle cells; 1 and 5 μM inhibitor) | inhibition of AVP-induced AA release (A-10 smooth muscle cells; 5 μM inhibitor, 20 min pretreatment)
1 | O=C1OC(=CBr)CCC1c1cccc2ccccc12 (racemic) [rac-BEL, Racemic (E)-6-(bromomethylene)-3-(1-naphthalenyl)-2H-tetrahydropyran-2-one] | not effected | significantly reduced | –
2 | O=C1O/C(=C/Br)CC[C@@H]1c1cccc2ccccc12 [(R)-BEL, (R)(E)-6-(bromomethylene)-3-(1-naphthalenyl)-2H-tetrahydropyran-2-one] | not effected | – | about 10%
